Source: PubChem BioAssay (NCI)
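48-hour exposure; five concentrations; linearly interpolated endpoints. Abbreviation: GI50, concentration required for 50% inhibition of growth. TGI denotes the concentration required for complete inhibition of growth.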

How the values were obtained:
Test in all cases: inhibition of tumour cell growth, NCI panel, 48 h
[1] = test system: 786-0 renal
[2] = test system: A498 renal
[3] = test system: A549 NSCLC
[4] = test system: ACHN renal
[5] = test system: BT-549 breast
[6] = test system: CAKI-1 renal
[7] = test system: CCRF-CEM leukemia
[8] = test system: COLO 205 colon
[9] = test system: DU-145 prostate
[10] = test system: EKVX NSCLC
[11] = test system: HCC-2998 colon
[12] = test system: HCT-116 colon
[13] = test system: HCT-15 colon
[14] = test system: HL-60(TB) leukemia
[15] = test system: HOP-62 NSCLC
[16] = test system: HOP-92 NSCLC
[17] = test system: HS 578T breast
[18] = test system: HT29 colon
[19] = test system: IGROV1 ovarian
[20] = test system: K-562 leukemia
[21] = test system: KM12 colon
[22] = test system: LOX IMVI melanoma
[23] = test system: M14 melanoma
[24] = test system: MALME-3M melanoma
[25] = test system: MCF7 breast
[26] = test system: MDA-MB-231 breast
[27] = test system: MDA-MB-435
[28] = test system: MOLT-4 leukemia
[29] = test system: NCI-H226 lung
[30] = test system: NCI-H23 lung
[31] = test system: NCI-H460 lung
[32] = test system: NCI/ADR-RES ovarian
[33] = test system: OVCAR-3 ovarian
[34] = test system: OVCAR-4 ovarian
[35] = test system: OVCAR-5 ovarian
[36] = test system: OVCAR-8 ovarian
[37] = test system: PC-3 prostate
[38] = test system: RPMI-8226 leukemia
[39] = test system: RXF 393 renal
[40] = test system: SF-268 CNS
[41] = test system: SF-295 CNS
[42] = test system: SF-539 CNS
[43] = test system: SK-MEL-2 melanoma
[44] = test system: SK-MEL-28 melanoma
[45] = test system: SK-MEL-5 melanoma
[46] = test system: SK-OV-3 ovarian
[47] = test system: SN12C renal
[48] = test system: SNB-19 CNS
[49] = test system: SNB-75 CNS
[50] = test system: SR leukemia
[51] = test system: SW-620 colon
[52] = test system: T-47D breast
[53] = test system: TK-10 renal
[54] = test system: U251 CNS
[55] = test system: UACC-257 melanoma
[56] = test system: UACC-62 melanoma
[57] = test system: UO-31 renal

## COc1ccc(-c2cnoc2-c2ccc(OC)cc2O)cc1
[1]
  GI50: 5.31 µM
  TGI: 37.5 µM
[2]
  GI50: 1780 nM
  TGI: 8.49 µM
[3]
  GI50: 4.08 µM
  TGI: 69.3 µM
[4]
  GI50: 9.17 µM
  TGI: > 100 µM
[5]
  GI50: 9.73 µM
  TGI: 35.3 µM
[6]
  GI50: 4.31 µM
  TGI: > 100 µM
[7]
  GI50: 3.09 µM
  TGI: > 100 µM
[8]
  GI50: 9.5 µM
  TGI: 30.4 µM
[9]
  GI50: 3.85 µM
  TGI: 15.8 µM
[10]
  GI50: 15.5 µM
  TGI: > 100 µM
[11]
  GI50: 5.27 µM
  TGI: 29.8 µM
[12]
  GI50: 2820 nM
  TGI: 16.5 µM
[13]
  GI50: 2560 nM
  TGI: > 100 µM
[14]
  GI50: 2930 nM
  TGI: 16.8 µM
[15]
  GI50: 4.6 µM
  TGI: 35.7 µM
[16]
  GI50: 2420 nM
  TGI: 27.4 µM
[17]
  GI50: 1900 nM
  TGI: 6.69 µM
[18]
  GI50: 3.54 µM
  TGI: 15.3 µM
[19]
  GI50: 7.54 µM
  TGI: 92.1 µM
[20]
  GI50: 534 nM
  TGI: > 100 µM
[21]
  GI50: 2660 nM
  TGI: 15 µM
[22]
  GI50: 6.9 µM
  TGI: 26.2 µM
[23]
  GI50: 2690 nM
  TGI: 15 µM
[24]
  GI50: 14.1 µM
  TGI: 49.5 µM
[25]
  GI50: 2850 nM
  TGI: 85.2 µM
[26]
  GI50: 3.32 µM
  TGI: 27.6 µM
[27]
  GI50: 314 nM
  TGI: 1600 nM
[28]
  GI50: 3.36 µM
  TGI: 22.9 µM
[29]
  GI50: 12.8 µM
  TGI: 55.6 µM
[30]
  GI50: 4.31 µM
  TGI: 50.3 µM
[31]
  GI50: 3.24 µM
  TGI: 12.4 µM
[32]
  GI50: 1750 nM
  TGI: 19.1 µM
[33]
  GI50: 2320 nM
  TGI: 5.76 µM
[34]
  GI50: 10.5 µM
  TGI: > 100 µM
[35]
  GI50: 13.5 µM
  TGI: > 100 µM
[36]
  GI50: 4.49 µM
  TGI: 30.4 µM
[37]
  GI50: 4.52 µM
  TGI: 54.3 µM
[38]
  GI50: 4.98 µM
  TGI: 67.4 µM
[39]
  GI50: 3.4 µM
  TGI: 11.1 µM
[40]
  GI50: 6.32 µM
  TGI: 42.6 µM
[41]
  GI50: 2990 nM
  TGI: 14.8 µM
[42]
  GI50: 3.66 µM
  TGI: 16.6 µM
[43]
  GI50: 3.33 µM
  TGI: 11.8 µM
[44]
  GI50: 5.42 µM
  TGI: 60.5 µM
[45]
  GI50: 3.52 µM
  TGI: 14.2 µM
[46]
  GI50: 4.17 µM
  TGI: 24 µM
[47]
  GI50: 5 µM
  TGI: 41.1 µM
[48]
  GI50: 5.29 µM
  TGI: > 100 µM
[49]
  GI50: 1720 nM
  TGI: 9.86 µM
[50]
  GI50: 628 nM
  TGI: 13 µM
[51]
  GI50: 2050 nM
  TGI: > 100 µM
[52]
  GI50: 8.64 µM
  TGI: > 100 µM
[53]
  GI50: 11.8 µM
  TGI: 47.5 µM
[54]
  GI50: 3.58 µM
  TGI: 18.3 µM
[55]
  GI50: 6.9 µM
  TGI: 41.6 µM
[56]
  GI50: 2610 nM
  TGI: 20.2 µM
[57]
  GI50: 11.6 µM
  TGI: 53.3 µM
